Test results reported in article PMC8066774, “Binding and Action of Triphenylphosphonium Analog of Chloramphenicol upon the Bacterial Ribosome” (Antibiotics, 2021).

What was measured:
E. coli 70S ribosomes [1] = assay: Direct equilibrium binding of BODIPY-CAM measured by fluorescence anisotropy; details: BODIPY-CAM 4 nM, ribosomes 5 nM to 5 µM, 30 min; read-out: Apparent dissociation constant KDapp, direct equilibrium binding
Protocol: The apparent dissociation constant of BODIPY-CAM (KDapp = 3.5 ± 0.9 µM) was determined by its direct equilibrium binding to E. coli 70S ribosomes (Figure S1B). A solution of BODIPY-CAM (4 nM) in the buffer containing 20 mM HEPES-KOH (pH 7.5), 50 mM NH4Cl, 10 mM Mg(CH3COO)2, 4 mM β-mercaptoethanol, and 0.05% Tween-20 was mixed with ribosomes in the range of concentrations from 5 nM to 5 μM, incubated for 30 min, and the values of fluorescence anisotropy were measured.
Chen C.- W. et al. Supplementary Inform ation P age | 6of 10 […]
Fi g u re S1. Binding of BODIPY-CAM to E. coli 70S ribosomes measu re d b y f lu orescence an isot rop y.
(A) Chemical structure of fluorescent analog of chloramphenicol BODIPY-CAM. (B) Equilibrium binding isotherm of BODIPY-CAM to E. coli 70S ribosomes.Non -linear regression anal ysis of obt ained data yi elded an apparent dissociation constant of BO D IP Y -CAM ( KDapp = 3.5 ± 0.9 µM).
(1 picture or pasted object on this page, not shown here)

[2] = test system: E. coli BW25113 ΔtolC pDualRep2 reporter strain; assay: In vivo dual-reporter (pDualrep2) assay on agar plate: Katushka2S / RFP induction and growth inhibition zone; type: cell-based; details: overnight 37 °C; for Induction of fluorescent reporters (Katushka2S = ribosome stalling; RFP = DNA damage/SOS response): drops of DMSO solutions (CAM-C4-TPP 20 mM, C4-TPP 20 mM, CAM 2 mM, CHL 2 mM, ERY 6.8 mM, LEV 69 nM)
Text: Since CAM-C4-TPP is a semi-synthetic analog of the PTC-targeting antibiotic CHL, we expected that, similar to CHL, CAM-C4-TPP would also bind and act upon the bacterial ribosome inhibiting protein synthesis. However, we could not rule out the possibility that the presence of the additional TPP group could alter the intracellular target of the CAM-C4-TPP molecule. To check whether protein synthesis remains the primary target of CAM-C4-TPP action in the bacterial cells, we used an E. coli-based in vivo reporter system that is designed for screening of inhibitors targeting either DNA replication or protein synthesis.
(§1) Figure 2 CAM-C4-TPP is a potent inhibitor of protein synthesis both in vivo and in vitro. (A) In vivo testing of CAM-C4-TPP activity using E. coli BW25113 ΔtolC pDualRep2 reporter strains. The induction of the red fluorescent protein (RFP) expression (green halo around the inhibition zone) is triggered by DNA-damage, while the induction of Katushka2S protein (red halo) occurs in response to ribosome stalling. Levofloxacin (LEV), erythromycin (ERY), and chloramphenicol (CHL) are used as controls. This image is an overlay of the two images from the independent detections of RFP (Cy3 mode) or Ktushka2S (Cy5 mode) by ChemiDoc MP (Bio-Rad) with RFP fluorescence shown in green pseudocolor and Katushka2S fluorescence shown in red pseudocolor. (B,C) Competition-binding assay to test the displacement of fluorescently labeled BODIPY-CAM (B) or BODIPY-ERY (C) analogs from the E. coli 70S ribosomes in the presence of increasing concentrations of CAM (open diamonds), CHL (blue squares), or CAM-C4-TPP (red circles) measured by fluorescence anisotropy. All reactions were repeated three times. Error bars represent standard deviation. ND, no displacement. The resulting values for apparent dissociation constants (KDapp) are shown on each plot. (D) Inhibition of protein synthesis by increasing concentrations of CHL (blue squares) or CAM-C4-TPP (red circles) in the in vitro cell-free transcription-translation coupled system. The relative enzymatic activity of in vitro synthesized firefly luciferase is shown. Error-bars represent standard deviations of the mean of three independent measurements. TEXT PRINTED IN THE PICTURE: (D) CHL: IC50, μM: 2.8±0.5 | (D) CAM-C4-TPP: IC50, μM: 0.9±0.2 | (B) CAM: KDApp, μM: 420±240 | (B) CHL: KDApp, μM: 2.6±1.5 | (B) CAM-C4-TPP: KDApp, μM: 0.6±0.4 | (C) CAM: KDApp, μM: ND | (C) CHL: KDApp, μM: 2.8±0.5 | (C) CAM-C4-TPP: KDApp, μM: 0.61±0.07
For the in vivo bioactivity test (Figure 2A), we used the reporter strain BW25113ΔtolC-pDualrep2 as described previously. Briefly, 1.5 µL of the solutions of CAM-C4-TPP (20 mM), C4-TPP (20 mM), CAM (2 mM), and 1 µL of the solutions of CHL (2 mM), erythromycin (ERY, 6.8 mM), and levofloxacin (LEV, 69 nM) in DMSO were applied onto the agar plate that already contained a lawn of the reporter strain. After overnight incubation at 37 °C, the plate was scanned by ChemiDoc (Bio-Rad, USA) using “Cy3-blot” mode for RFP fluorescence and “Cy5-blot” mode for Katushka2S fluorescence.

E. coli 70S ribosomes [3] = assay: Competition-binding assay, displacement of BODIPY-CAM measured by fluorescence anisotropy; details: for Kd: BODIPY-CAM 30 nM, ribosomes 2.9 µM, 25 °C, pH 7.5, n=3, read-out: Apparent dissociation constant KDapp, displacement of BODIPY-CAM
Text: (§2) Figure 2 CAM-C4-TPP is a potent inhibitor of protein synthesis both in vivo and in vitro. (A) In vivo testing of CAM-C4-TPP activity using E. coli BW25113 ΔtolC pDualRep2 reporter strains. The induction of the red fluorescent protein (RFP) expression (green halo around the inhibition zone) is triggered by DNA-damage, while the induction of Katushka2S protein (red halo) occurs in response to ribosome stalling. Levofloxacin (LEV), erythromycin (ERY), and chloramphenicol (CHL) are used as controls. This image is an overlay of the two images from the independent detections of RFP (Cy3 mode) or Ktushka2S (Cy5 mode) by ChemiDoc MP (Bio-Rad) with RFP fluorescence shown in green pseudocolor and Katushka2S fluorescence shown in red pseudocolor. (B,C) Competition-binding assay to test the displacement of fluorescently labeled BODIPY-CAM (B) or BODIPY-ERY (C) analogs from the E. coli 70S ribosomes in the presence of increasing concentrations of CAM (open diamonds), CHL (blue squares), or CAM-C4-TPP (red circles) measured by fluorescence anisotropy. […]
The amphenicol moieties of CAM-C4-TPP, its parent CHL, and the fluorescent derivative BODIPY-CAM are expected to have identical ribosome binding sites and, therefore, these compounds are expected to compete with each other for binding to the ribosome. […] The apparent dissociation constants KDapp of CHL determined from the displacement of BODIPY-CAM (2.6 ± 1.5 µM) or BODIPY-ERY (2.8 ± 0.5 µM) are consistent with each other and with the previously published data, including data determined by direct [^14C]-CHL binding (2.3 µM [30]). […]
(§3) Binding affinities of CHL analog CAM-C4-TPP, as well as other tested compounds, for the E. coli ribosome (Figure 2B,C) were analyzed by a competition-binding assay using fluorescently labeled BODIPY-CAM or BODIPY-ERY as described before. […]
Solutions of CHL, CAM, CAM-C4-TPP, or C4-TPP in different concentration ranges were added to the pre-formed ribosome/BODIPY-CAM or ribosome/BODIPY-ERY complexes. The mixtures were incubated for 2 h until equilibrium was reached and the values of fluorescence anisotropy were measured. […]

E. coli 70S ribosomes [4] = assay: Competition-binding assay, displacement of BODIPY-ERY measured by fluorescence anisotropy; details: BODIPY-ERY 16 nM, ribosomes 50 nM, 25 °C, pH 7.5, n=3; read-out: Apparent dissociation constant KDapp, displacement of BODIPY-ERY
Text: as §2, with “anisotropy. All reactions were repeated three times. Error bars represent standard deviation. ND, no displacement.” for “anisotropy.”
as §3

[5] = test system: cell-free transcription-translation system based on the E. coli S30 extract; assay: In vitro cell-free transcription-translation inhibition assay, firefly luciferase synthesis; type: biochemical; details: for IC50 / Concentration at which nearly complete inhibition of protein synthesis was observed: E. coli S30 extract; for IC50: 37 °C, 30 min, n=3; for Concentration at which nearly complete inhibition of protein synthesis was observed: firefly luciferase
Text: as §1
To check whether the improved binding of CAM-C4-TPP to the ribosome correlates with stronger inhibition of translation, we tested its ability to interfere with in vitro protein synthesis. […] Thus, CAM-C4-TPP provides a promising foundation for future ribosome-targeting drug development.
In vitro assessment of inhibition of synthesis of firefly luciferase by the tested compounds (Figure 2D) was accomplished as described previously. Briefly, the in vitro transcribed firefly luciferase mRNA was translated using E. coli S30 Extract System for Linear Templates (Promega, USA). Reactions containing 100 ng of mRNA and […] 0.1 mM of D-luciferin from the Steady-Glo Luciferase Assay System (Promega) were preincubated for 5 min with different concentrations (0.5 µM, 1 µM, 5 µM, 10 µM, 30 µM, 50 µM, 100 µM) of the tested compounds and carried out in 5-µL aliquots at 37 °C for 30 min. The activity of in vitro synthesized luciferase was measured by VICTOR X5 Multilabel Plate Reader (Perkin Elmer, USA) every 30 s. Calculations of the IC50 values for the tested compounds were carried out using GraphPad Prism software.

[6] = test system: ribosome stalling on rst1 and rst2 mRNAs; assay: Toe-printing (primer extension inhibition) on rst1 and rst2 mRNAs in a cell-free translation system; type: biochemical; details: 30 µM compound
Text: The inhibition of protein synthesis by the PTC-targeting antibiotics depends on the amino-acid sequence of the nascent polypeptide chain and the identity of the incoming aminoacyl-tRNA in the A site of the ribosome. For example, CHL arrests translation only when alanine, and to a lesser extent, serine or threonine appear in the penultimate position (E site) of the growing polypeptide chain and only if there is no glycyl-tRNA in the A site of the ribosome. […] This method allows unambiguous identification of the drug-induced ribosome stalling site along the mRNA with a single nucleotide precision. This technique also allows for the determination of the context-specificity of drug action. A large set of ribosome-targeting antibiotics has been previously tested by toe-printing using rst1 or rst2 mRNAs as templates, because their sequences contain codons for almost all proteinogenic amino acids. Therefore, in order to be able to directly compare our results for CAM-C4-TPP with those for other antibiotics, we have chosen exactly the same experimental system.
Nevertheless, in the presence of CAM-C4-TPP, a fraction of ribosomes manages to escape the start codon, continues translation, and stalls at later codons within the ORF (Figure 6A,B, lanes 3 and 6).
Figure 6 CAM-C4-TPP is capable of arresting translation at the start codon. […]

ribosome = target: ribosome; design: method as in PMID 4563072; details: read-out: Dissociation constant by direct [14C]-CHL binding; cited from earlier work

Row | Structure (SMILES) | Induction of fluorescent reporters (Katushka2S = ribosome stalling; RFP = DNA damage/SOS response) [2] | Kd (E. coli 70S ribosomes [3]) | Kd (E. coli 70S ribosomes [4]) | IC50 [5] | Concentration at which nearly complete inhibition of protein synthesis was observed [5] | Drug-induced ribosome stalling sites (toe-printing) [6] | other results
1 | CC1=CC(C)=[N+]2C1=Cc1ccc(CCCCC(=O)NC(CO)C(O)c3ccc([N+](=O)[O-])cc3)n1[B-]2(F)F (centres unmarked) [BODIPY-CAM] |  |  |  |  |  |  | Kd (E. coli 70S ribosomes [1]): 3500 ± 900 nM
2 | O=C(O)CCCC[P+](c1ccccc1)(c1ccccc1)c1ccccc1.[Br-] [C4-TPP, (4-Carboxybutyl)triphenyl-phosphonium bromide] | does not induce any of the two reporters |  |  |  |  |  | Bacterial cell growth inhibition (inhibition zone) ([2]; 1.5 µL of C4-TPP 20 mM or CAM 2 mM): inhibits bacterial cell growth
3 | O=C(CCCC[P+](c1ccccc1)(c1ccccc1)c1ccccc1)N[C@H](CO)[C@H](O)c1ccc([N+](=O)[O-])cc1 [CAM-C4-TPP] | the expression of the fluorescent protein Katushka2S, but not of RFP, was strongly activated | 600 ± 400 nM | 610 ± 70 nM | 900 ± 200 nM | ~ 10 µM | causes a significant portion of the ribosomes to stall at the initiator codons | Fold higher affinity for the ribosome compared to parent CHL (E. coli 70S ribosomes [3]; both displacement assays (BODIPY-CAM and BODIPY-ERY)): ~ 5 fold; Fold better IC50 compared to CHL ([5]; in vitro translation of firefly luciferase): more than 3 fold
4 | O=C(N[C@H](CO)[C@H](O)c1ccc([N+](=O)[O-])cc1)C(Cl)Cl [CHL, chloramphenicol] | induce expression of far-red fluorescent protein reporter Katushka2S | 2600 ± 1500 nM | 2800 ± 500 nM | 2800 ± 500 nM | ~ 10 µM | predominant ribosome stalling when the 6th serine (Ser6) or 4th alanine (Ala4) residues appeared in the penultimate position | Kd (ribosome): 2300 nM
5 | CC[C@H]1OC(=O)[C@H](C)[C@@H](O[C@H]2C[C@@](C)(OC)[C@@H](O)[C@H](C)O2)[C@H](C)[C@@H](O[C@@H]2O[C@H](C)C[C@H](N(C)C)[C@H]2O)[C@](C)(O)C[C@@H](C)C(=O)[C@H](C)[C@@H](O)[C@]1(C)O [erythromycin] | induce expression of far-red fluorescent protein reporter Katushka2S |  |  |  |  |  | 
6 | C[C@H]1COc2c(N3CCN(C)CC3)c(F)cc3c(=O)c(C(=O)O)cn1c23 [levofloxacin] | induce expression of Red Fluorescent Protein (RFP) reporter |  |  |  |  |  | 
